Reference: US9290515B2, “Cephem derivative having catechol group” (SHIONOGI & CO., LTD., priority 2011, dated 2016)
Values after ≈ are worked out from the molar mass of the structure shown. Read-outs that look alike come from different tables or passages of the source.

Experiments:
Type in all cases: cell-based
[1] = tested on: E. coli ATCC BAA-196_TEM-10; assay: MIC by broth microdilution (CLSI), E. coli ATCC BAA-196; details: Escherichia coli
Protocol: (§1) Measurement of a minimum growth inhibition concentration (MIC: μg/mL) was performed according to CLSI (Clinical and Laboratory Standards Institute) method, by broth microdilution method, using an inoculation microbe amount of 10000 cfu/well and cation-adjusted Mueller Hinton broth containing human-derived 20 μM apo-transferrin as a test medium.

[2] = tested on: K. pneumoniae ATCC 700603_SHV18; assay: MIC by broth microdilution (CLSI), K. pneumoniae ATCC 700603; details: Klebsiella pneumoniae
Protocol: as §1

P. aeruginosa SR24 = assay: MIC by broth microdilution (CLSI), P. aeruginosa SR24; details: Pseudomonas aeruginosa
Protocol: as §1

[3] = tested on: P. aeruginosa SR27001(MDRP, IMP-1+); assay: MIC by broth microdilution (CLSI), P. aeruginosa SR27001; details: Pseudomonas aeruginosa, read-out: minimum growth inhibition concentration (MIC)
Protocol: as §1

[4] = tested on: P. aeruginosa SR27060(metallo); assay: MIC by broth microdilution (CLSI), P. aeruginosa SR27060; details: Pseudomonas aeruginosa; P. aeruginosa SR27060, IMP-1, MBL producing carbapenem-resistant strain; 10000 cfu/well; cation-adjusted Mueller Hinton broth with 20 μM human apo-transferrin; read-out: minimum growth inhibition concentration (MIC)
Protocol: as §1

A. baumannii SR24396 = assay: MIC by broth microdilution (CLSI), A. baumannii SR24396; details: Acinetobacter baumannii, 10000 cfu/well, cation-adjusted Mueller Hinton broth with 20 μM human apo-transferrin, read-out: minimum growth inhibition concentration (MIC)
Protocol: as §1

[5] = ATCCBAA196, E. coli ATCC BAA-196, TEM-10, ESBL producing strain, 10000 cfu/well, cation-adjusted Mueller Hinton broth with 20 μM human apo-transferrin, read-out: minimum growth inhibition concentration (MIC)
[6] = ATCC700603, K. pneumoniae ATCC 700603, SHV-18, ESBL producing strain, 10000 cfu/well, cation-adjusted Mueller Hinton broth with 20 μM human apo-transferrin, read-out: minimum growth inhibition concentration (MIC)
[7] = P. aeruginosa SR24, Ceftazidime-sensitive strain, 10000 cfu/well, cation-adjusted Mueller Hinton broth with 20 μM human apo-transferrin, read-out: minimum growth inhibition concentration (MIC)
[8] = P. aeruginosa SR27001, MDRP, IMP-1, MBL producing carbapenem-resistant strain, 10000 cfu/well, cation-adjusted Mueller Hinton broth with 20 μM human apo-transferrin

Compound | MIC [1, 5] [mg/L] | MIC [2, 6] [mg/L] | MIC (P. aeruginosa SR24; [7]) [mg/L] | MIC [3, 8] [mg/L] | MIC [4] [mg/L] | MIC (A. baumannii SR24396) [mg/L] | MIC ([1]; ATCCBAA196, read-out: minimum growth inhibition concentration (MIC)) [mg/L] | MIC ([2]; ATCC700603, read-out: minimum growth inhibition concentration (MIC)) [mg/L] | MIC (P. aeruginosa SR24; SR24, read-out: minimum growth inhibition concentration (MIC)) [mg/L] | MIC [3] [mg/L]
NCC[N+]1(CC2=C(C(=O)[O-])N3C(=O)[C@@H](NC(=O)/C(=N\OCc4ccc(O)c(O)c4C(=O)O)c4csc(N)n4)[C@H]3SC2)CCCC1 [Compound I-19] | 8 (≈ 12.1 µM) |  | 0.5 (≈ 0.756 µM) |  |  |  |  |  |  | 
C[N+]1(CC2=C(C(=O)[O-])N3C(=O)[C@@H](NC(=O)/C(=N\OC(CNC(=O)c4ccc(O)c(O)c4Cl)C(=O)O)c4csc(N)n4)[C@H]3SC2)[C@@H]2CC[C@H]1C[C@@H](N)C2 (some centres unmarked) [Compound I-6] | 0.25 (≈ 0.321 µM) | 0.125 (≈ 0.16 µM) | 0.125 (≈ 0.16 µM) | 0.25 (≈ 0.321 µM) | 0.25 (≈ 0.321 µM) | ≤ 0.031 |  |  |  | 
NCC[N+]1(CC2=C(C(=O)[O-])N3C(=O)[C@@H](NC(=O)/C(=N\OC(CNC(=O)c4ccc(O)c(O)c4Cl)C(=O)O)c4nc(N)sc4Cl)[C@H]3SC2)CCCC1 (some centres unmarked) [Compound I-16] | 0.125 (≈ 0.159 µM) | 1 (≈ 1.27 µM) | 0.25 (≈ 0.317 µM) | 2 (≈ 2.54 µM) |  |  |  |  |  | 
C[N+]1(CC2=C(C(=O)[O-])N3C(=O)[C@@H](NC(=O)/C(=N\OC[C@H](NC(=O)c4ccc(O)c(O)c4Cl)C(=O)O)c4csc(N)n4)[C@H]3SC2)[C@@H]2CC[C@H]1C[C@@H](N)C2 (some centres unmarked) [Compound I-1] | 0.25 (≈ 0.321 µM) | 2 (≈ 2.57 µM) | 0.125 (≈ 0.16 µM) | 0.5 (≈ 0.642 µM) | 0.25 (≈ 0.321 µM) | ≤ 0.031 |  |  |  | 
Nc1nc(/C(=N/OC(CNC(=O)c2ccc(O)c(O)c2Cl)C(=O)[O-])C(=O)N[C@@H]2C(=O)N3C(C(=O)[O-])=C(C[N+]45CCCC4CCC5)CS[C@H]23)cs1.[Na+] (some centres unmarked) [Compound I-24] | 1 | 0.5 | 0.5 | 16 |  |  |  |  |  | 
Nc1nc(/C(=N/OC[C@H](NC(=O)c2ccc(O)c(O)c2Cl)C(=O)[O-])C(=O)N[C@@H]2C(=O)N3C(C(=O)[O-])=C(C[n+]4cccc5c4CCC5)CS[C@H]23)cs1.[Na+] [Compound I-3] | 1 |  | 0.25 | 4 | 1 | 0.125 |  |  |  | 
C[N+]1(CC2=C(C(=O)[O-])N3C(=O)[C@@H](NC(=O)/C(=N\OC(CNC(=O)c4ccc(O)c(O)c4Cl)C(=O)[O-])c4csc(N)n4)[C@H]3SC2)[C@@H]2CCC[C@H]1CC2.[Na+] (some centres unmarked) [Compound I-10] |  |  |  |  |  |  | 1 | 0.5 | 0.25 | 2

Further lines, with some results ahead:

MIC [1, 5] [mg/L] | MIC [2, 6] [mg/L] | MIC (P. aeruginosa SR24; [7]) [mg/L] | MIC [3, 8] [mg/L] | MIC [4] [mg/L] | MIC (A. baumannii SR24396) [mg/L] | Compound | MIC ([1]; ATCCBAA196, read-out: minimum growth inhibition concentration (MIC)) [mg/L] | MIC ([2]; ATCC700603, read-out: minimum growth inhibition concentration (MIC)) [mg/L] | MIC (P. aeruginosa SR24; SR24, read-out: minimum growth inhibition concentration (MIC)) [mg/L] | MIC [3] [mg/L]
0.5 | 1 | 0.25 | 2 |  |  | Nc1nc(/C(=N/OC(C[C@H](NC(=O)c2ccc(O)c(O)c2Cl)C(=O)[O-])C(=O)[O-])C(=O)N[C@@H]2C(=O)N3C(C(=O)[O-])=C(C[N+]4(CCNC(=O)CC[C@H](N)C(=O)O)CCCC4)CS[C@H]23)cs1.[Na+].[Na+] (some centres unmarked) [Compound I-32] |  |  |  | 
0.125 (≈ 0.166 µM) | 0.063 (≈ 0.0836 µM) | 0.125 (≈ 0.166 µM) | 0.5 (≈ 0.664 µM) | 0.125 (≈ 0.166 µM) | ≤ 0.031 | NCC[N+]1(CC2=C(C(=O)[O-])N3C(=O)[C@@H](NC(=O)/C(=N\OC(CNC(=O)c4ccc(O)c(O)c4Cl)C(=O)O)c4csc(N)n4)[C@H]3SC2)CCCC1 (some centres unmarked) [Compound I-7] |  |  |  | 
0.5 | 1 | 0.5 | 2 |  |  | Nc1nc(/C(=N/OC(CNC(=O)c2ccc(O)c(O)c2Cl)C(=O)[O-])C(=O)N[C@@H]2C(=O)N3C(C(=O)[O-])=C(C[N+]4(CCNC(=O)CC[C@H](N)C(=O)O)CCCC4)CS[C@H]23)c(Cl)s1.[Na+] (some centres unmarked) [Compound I-29] |  |  |  | 
2 | 0.5 | 0.25 | 4 |  |  | Nc1nc(/C(=N/OC(CNC(=O)c2ccc(O)c(O)c2Cl)C(=O)[O-])C(=O)N[C@@H]2C(=O)N3C(C(=O)[O-])=C(C[N+]4(CCNC(=O)C[C@@H](N)CC(=O)O)CCCC4)CS[C@H]23)cs1.[Na+] (some centres unmarked) [Compound I-27] |  |  |  | 
2 | 1 | 0.5 | 4 |  |  | Nc1nc(/C(=N/OC(CNC(=O)c2ccc(O)c(O)c2Cl)C(=O)[O-])C(=O)N[C@@H]2C(=O)N3C(C(=O)[O-])=C(C[N+]4(CCNC(=O)CC[C@H](N)C(=O)O)CCCC4)CS[C@H]23)cs1.[Na+] (some centres unmarked) [Compound I-25] |  |  |  | 
0.5 | 1 | 0.125 | 8 | 4 | 0.063 | C[N+]1(CC2=C(C(=O)[O-])N3C(=O)[C@@H](NC(=O)/C(=N\OC(CNC(=O)c4ccc(O)c(O)c4Cl)C(=O)[O-])c4csc(N)n4)[C@H]3SC2)CCCC1.[Na+] (some centres unmarked) [Compound I-8] |  |  |  | 
